Test system: mouse Renal cell carcinoma cell line RAG
Assay: Subcutaneous (s.c.) RAG transplantation model, anti-tumor effect of triple combination (Example 1)
Format: in vivo
Conditions: for CR rate: 28 days of administration
Text: An Eagle's minimal essential medium (E-MEM) containing 10% fetal bovine serum (FBS) and penicillin/streptomycin (100 unit/mL each) was used to culture a mouse Renal cell carcinoma cell line RAG (ATCC number: CCL-142). Logarithmic growing cells were collected from flasks using Trypsin-EDTA. The suspension of cells was centrifuged to remove the supernatant. Next, Hanks' Balanced Salt Solution (HBSS) was used to prepare a cell suspension having a concentration of 2.5×10^7 cells/mL. The cell suspension was subcutaneously transplanted at a dose of 0.1 mL on the right lateral side of the body of each of 7-week-old mice (BALB/cAnNCrlCrlj, female, Charles River Laboratories Japan Inc.). Eight (8) days after the transplantation, an electronic digital caliper (Digimatic™ Caliper; Mitutoyo Corporation) was used to measure the short and long diameters of a tumor of interest. The following equations were used to calculate the tumor volume TV and RTV. Tumor Volume TV (mm^3)=Long Diameter (mm)×Short Diameter (mm)×Short Diameter (mm)/2 EQ. 1: Relative Tumor Volume RTV=TV on day n/TV on day1 EQ. 2:
Based on the tumor volumes on the first day of administration, grouping was carried out such that the average values of the tumor volumes were almost the same. A 1 mg/ml solution of lenvatinib was prepared using 3 mM HCl and was orally administered at a dose of 0.2 mL/20 g mouse body weight once daily for 28 days. 0.2 mL of an administration sample containing 1.0 mg/mL of an anti-mouse-PD-1 antibody (Clone: RMP1-14, BioXCell, Catalog #: BE0146), which had been diluted with PBS, was intraperitoneally administered (at a dosage of 200 μg/mouse) twice a week a total of 8 times (day 1, day 4, day 8, day 11, day 15, day 18, day 22, and day 25, with the day of the grouping set to day 1). A 2.5 mg/ml solution of E7386 was prepared using 0.1 M HCl and was orally administered at a dose of 0.2 mL/20 g mouse body weight once daily for 28 days. To the control group, nothing was administered. Each group including 8 mice was used to conduct the experiment. Twice a week (day 1, day 4, day 8, day 11, day 15, day 18, day 22, day 25, and day 29), the respective tumor volumes (TV) were determined for the control group, the lenvatinib administration group, the anti-mouse-PD-1 antibody administration group, lenvatinib+anti-mouse-PD-1 antibody administration group, E7386+lenvatinib administration group and triple combination group. The values obtained by logarithmically transforming the tumor volumes were used to carry out statistical analysis by repeated measured Dunnet's multiple comparison. E7386 is (6S,9aS)-N-benzyl-8-({6-[3-(4-ethylpiperazin-1-yl)azetidin-1-yl]pyridin-2-yl}methyl)-6-(2-fluoro-4-hydroxybenzyl)-4,7-dioxo-2-(prop-2-en-1-yl)hexahydro-2H-pyrazino[2,1-c][1,2,4]triazine-1(6H)-carboxamide.

[1] = Day 1 (day of grouping, first administration), BALB/c mice

Structure (SMILES) | CR rate (BALB/c mice) | tumor volume (TV) [1] [mm^3] | tumor volume (TV) (Day 4, BALB/c mice) [mm^3] | tumor volume (TV) (Day 8, BALB/c mice) [mm^3] | tumor volume (TV) (Day 11, BALB/c mice) [mm^3] | tumor volume (TV) (Day 15, BALB/c mice) [mm^3] | tumor volume (TV) (Day 18, BALB/c mice) [mm^3] | tumor volume (TV) (Day 22, BALB/c mice) [mm^3] | tumor volume (TV) (Day 25, BALB/c mice) [mm^3] | tumor volume (TV) (Day 29, BALB/c mice) [mm^3]
C=CCN1CC(=O)N2[C@@H](Cc3ccc(O)cc3F)C(=O)N(Cc3cccc(N4CC(N5CCN(CC)CC5)C4)n3)C[C@@H]2N1C(=O)NCc1ccccc1 [E7386, (6S,9aS)-N-benzyl-8-({6-[3-(4-ethylpiperazin-1-yl)azetidin-1-yl]pyridin-2-yl}methyl)-6-(2-fluoro-4-hydroxybenzyl)-4,7-dioxo-2-(prop-2-en-1-yl)hexahydro-2H-pyrazino[2,1-c][1,2,4]triazine-1(6H)-carboxamide] | 1 out of 8 mice | 62 | 93 | 148 | 210 | 301 | 408 | 588 | 723 | 923
COc1cc2nccc(Oc3ccc(NC(=O)NC4CC4)c(Cl)c3)c2cc1C(N)=O [Lenvatinib, 4-[3-chloro-4-(cyclopropylaminocarbonyl)aminophenoxy]-7-methoxy-6-quinolinecarboxamide] | 0 out of 8 mice | 62 | 82 | 102 | 134 | 152 | 175 | 162 | 166 | 151

Reference: US12661398B2, “Combination of a PD-1 antagonist, a VEGFR/FGFR/RET tyrosine kinase inhibitor and a CBP/beta-catenin inhibitor for treating cancer” (Eisai R&D Management Co., Ltd., priority 2019, dated 2026)
